{
  "source": "paper PMC10227015",
  "about": "“From a drug repositioning to a structure-based drug design approach to tackle acute lymphoblastic leukemia” (Nature Communications, 2023)",
  "key": {"CCRF-CEM cell line": {"tested_on": "CCRF-CEM cell line", "assay": "dCK cellular assay: CCRF-CEM proliferation in the presence of dT and dC", "format": "cell-based, human", "conditions": "for activity at 0.078 µM: 78 nM; for activity at 0.156 µM: 156 nM; for activity at 0.312 µM: 312 nM; for activity at 0.625 µM: 625 nM; for activity at 1.25 µM: 1250 nM; for activity at 2.5 µM: 2500 nM; for activity at 5 µM: 5000 nM; for activity at 10 µM: 10000 nM; for activity at 20 µM: 20000 nM; for activity at 40 µM: 40000 nM; for IC50: 72 h, read-out: IC50 cell proliferation (dCK cellular assay)", "summary_of_the_method": "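Two conditions in T-ALL CCRF-CEM cells: compound only, and compound with thymidine blocking de novo synthesis and deoxycytidine rescuing via dCK. Metabolic dye fluorescence (560/590 nm) gives % proliferation vs DMSO; IC50s, mean ± SD of at least three triplicate runs.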"}, "dCK-C3S-S74E [1]": {"tested_on": "dCK-C3S-S74E", "sequence (P27707 whole entry S74E, form open)": "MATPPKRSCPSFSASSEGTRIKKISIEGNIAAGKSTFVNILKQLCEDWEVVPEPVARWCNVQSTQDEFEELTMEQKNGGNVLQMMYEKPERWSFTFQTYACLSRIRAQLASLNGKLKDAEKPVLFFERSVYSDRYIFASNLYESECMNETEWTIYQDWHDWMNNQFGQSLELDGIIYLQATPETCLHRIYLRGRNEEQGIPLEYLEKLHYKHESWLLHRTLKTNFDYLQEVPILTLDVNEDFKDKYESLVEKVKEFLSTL", "assay": "Thermal shift assay (TSA)", "conditions": "for ΔTm, dCK thermal stabilization (TSA): 5 μM protein, 50 μM compound; for Thermal Shift Assay Mean (ΔTm (º)): Figure 2b; for THERMAL SHIFT ASSAY +Tm (°): mean ± SD"}, "dCK-C3S-S74E [2]": {"tested_on": "dCK-C3S-S74E", "assay": "Enzymatic assay (PK/LDH coupled), dC phosphorylation by dCK in the presence of UTP", "format": "biochemical, human", "conditions": "for ENZYMATIC ASSAY (Activation/Inhibition): presence of UTP", "summary_of_the_method": "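Activation versus inhibition was judged with 1 mM UTP, 200 µM dC and 2 μM dCK-C3S-S74E, using pyruvate kinase/lactate dehydrogenase coupling that tracks NADH fluorescence decrease at 460 nm. Buffer was HEPES pH 7.5 with MgCl2, KCl and DTT. Rates came from linear slopes, expressed relative to compound-free control.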"}, "[3]": {"conditions": "Homo sapiens, CCRF-CEM, dT 200 µM + dC 1 µM, read-out: Cell proliferation of the CCRF-CEM cell line Mean (% prolif)"}, "[4]": {"conditions": "Homo sapiens, CCRF-CEM, dT 200 µM + dC 1 µM"}},
  "data": [
    {"compound": "Cc1ccc(-c2ccc(CN3CCN(C)CC3)cc2)cc1Nc1nc(-c2nccc(N)n2)cs1", "note": "[OR0274]", "values": [
      {"measurement": "activity at 0.078 µM", "setting": "CCRF-CEM cell line; [3]", "value": 103, "unit": "%"},
      {"measurement": "activity at 0.156 µM", "setting": "CCRF-CEM cell line; [3]", "value": 94.8, "unit": "%"},
      {"measurement": "activity at 0.312 µM", "setting": "CCRF-CEM cell line; [3]", "value": 95.1, "unit": "%"},
      {"measurement": "activity at 0.625 µM", "setting": "CCRF-CEM cell line; [3]", "value": 90.1, "unit": "%"},
      {"measurement": "activity at 1.25 µM", "setting": "CCRF-CEM cell line; [3]", "value": 75, "unit": "%"},
      {"measurement": "activity at 2.5 µM", "setting": "CCRF-CEM cell line; [3]", "value": 55.5, "unit": "%"},
      {"measurement": "activity at 5 µM", "setting": "CCRF-CEM cell line; [3]", "value": 31, "unit": "%"},
      {"measurement": "activity at 10 µM", "setting": "CCRF-CEM cell line; [3]", "value": 7.8, "unit": "%"},
      {"measurement": "activity at 20 µM", "setting": "CCRF-CEM cell line; [3]", "value": -0.0667, "unit": "%"},
      {"measurement": "activity at 40 µM", "setting": "CCRF-CEM cell line; [3]", "value": 0.167, "unit": "%"},
      {"measurement": "IC50", "setting": "CCRF-CEM cell line; [4]", "value": 2100, "unit": "nM"},
      {"measurement": "ΔTm, dCK thermal stabilization (TSA)", "setting": "dCK-C3S-S74E [1]", "value": 16.7, "unit": "°C"},
      {"measurement": "Thermal Shift Assay Mean (ΔTm (º))", "setting": "dCK-C3S-S74E [1]", "value": "16.7 º"},
      {"measurement": "THERMAL SHIFT ASSAY +Tm (°)", "setting": "dCK-C3S-S74E [1]", "value": "16.7 ± 0.3", "unit": "°"},
      {"measurement": "ENZYMATIC ASSAY (Activation/Inhibition)", "setting": "dCK-C3S-S74E [2]", "value": "A/I"}
    ]},
    {"compound": "Cc1ccc(-c2ccc(CCN3CCN(C)CC3)cc2)cc1Nc1nc(-c2nccc(N)n2)cs1", "note": "[OR0325]", "values": [
      {"measurement": "activity at 0.078 µM", "setting": "CCRF-CEM cell line; [3]", "value": 100, "unit": "%"},
      {"measurement": "activity at 0.156 µM", "setting": "CCRF-CEM cell line; [3]", "value": 92.4, "unit": "%"},
      {"measurement": "activity at 0.312 µM", "setting": "CCRF-CEM cell line; [3]", "value": 88.7, "unit": "%"},
      {"measurement": "activity at 0.625 µM", "setting": "CCRF-CEM cell line; [3]", "value": 81.5, "unit": "%"},
      {"measurement": "activity at 1.25 µM", "setting": "CCRF-CEM cell line; [3]", "value": 61.9, "unit": "%"},
      {"measurement": "activity at 2.5 µM", "setting": "CCRF-CEM cell line; [3]", "value": 40.5, "unit": "%"},
      {"measurement": "activity at 5 µM", "setting": "CCRF-CEM cell line; [3]", "value": 11.6, "unit": "%"},
      {"measurement": "activity at 10 µM", "setting": "CCRF-CEM cell line; [3]", "value": 0.0667, "unit": "%"},
      {"measurement": "activity at 20 µM", "setting": "CCRF-CEM cell line; [3]", "value": -0.0333, "unit": "%"},
      {"measurement": "activity at 40 µM", "setting": "CCRF-CEM cell line; [3]", "value": 0.3, "unit": "%"},
      {"measurement": "IC50", "setting": "CCRF-CEM cell line; [4]", "value": 1680, "unit": "nM"},
      {"measurement": "ΔTm, dCK thermal stabilization (TSA)", "setting": "dCK-C3S-S74E [1]", "value": 17.8, "unit": "°C"},
      {"measurement": "Thermal Shift Assay Mean (ΔTm (º))", "setting": "dCK-C3S-S74E [1]", "value": "17.8 º"},
      {"measurement": "THERMAL SHIFT ASSAY +Tm (°)", "setting": "dCK-C3S-S74E [1]", "value": "17.9 ± 0.3", "unit": "°"},
      {"measurement": "ENZYMATIC ASSAY (Activation/Inhibition)", "setting": "dCK-C3S-S74E [2]", "value": "A/I"}
    ]},
    {"compound": "CCCN(c1nc(-c2nccc(N)n2)cs1)c1cc(-c2ccc(CCN3CCN(C)CC3)cc2)ccc1C", "note": "[OR0345]", "values": [
      {"measurement": "activity at 0.0195 µM", "setting": "CCRF-CEM cell line; Homo sapiens, CCRF-CEM, 19.5 nM, dT 200 µM + dC 1 µM, read-out: Cell proliferation of the CCRF-CEM cell line Mean (% prolif)", "value": 90.6, "unit": "%"},
      {"measurement": "activity at 0.039 µM", "setting": "CCRF-CEM cell line; Homo sapiens, CCRF-CEM, 39 nM, dT 200 µM + dC 1 µM, read-out: Cell proliferation of the CCRF-CEM cell line Mean (% prolif)", "value": 85.8, "unit": "%"},
      {"measurement": "activity at 0.078 µM", "setting": "CCRF-CEM cell line; [3]", "value": 82, "unit": "%"},
      {"measurement": "activity at 0.156 µM", "setting": "CCRF-CEM cell line; [3]", "value": 72.4, "unit": "%"},
      {"measurement": "activity at 0.312 µM", "setting": "CCRF-CEM cell line; [3]", "value": 63.4, "unit": "%"},
      {"measurement": "activity at 0.625 µM", "setting": "CCRF-CEM cell line; [3]", "value": 51.4, "unit": "%"},
      {"measurement": "activity at 1.25 µM", "setting": "CCRF-CEM cell line; [3]", "value": 37.6, "unit": "%"},
      {"measurement": "activity at 2.5 µM", "setting": "CCRF-CEM cell line; [3]", "value": 19.3, "unit": "%"},
      {"measurement": "activity at 5 µM", "setting": "CCRF-CEM cell line; [3]", "value": 2.4, "unit": "%"},
      {"measurement": "activity at 10 µM", "setting": "CCRF-CEM cell line; [3]", "value": 0.333, "unit": "%"},
      {"measurement": "IC50", "setting": "CCRF-CEM cell line; [4]", "value": 505, "unit": "nM"},
      {"measurement": "fold improvement of cellular IC50", "setting": "CCRF-CEM cell line; versus the preceding compound of the optimization", "value": 3, "unit": "fold"},
      {"measurement": "ΔTm, dCK thermal stabilization (TSA)", "setting": "dCK-C3S-S74E [1]", "value": 18.4, "unit": "°C"},
      {"measurement": "Thermal Shift Assay Mean (ΔTm (º))", "setting": "dCK-C3S-S74E [1]", "value": "18.4 º"},
      {"measurement": "THERMAL SHIFT ASSAY +Tm (°)", "setting": "dCK-C3S-S74E [1]", "value": "18.4 ± 0.2", "unit": "°"},
      {"measurement": "effect on dCK enzymatic activity, activation versus inhibition", "setting": "dCK-C3S-S74E [2]; UTP 1 mM, dC 200 µM", "value": "total loss of dCK enzymatic activation"},
      {"measurement": "ENZYMATIC ASSAY (Activation/Inhibition)", "setting": "dCK-C3S-S74E [2]", "value": "I"}
    ]}
  ]
}
